Results as given in ChEMBL document CHEMBL5365437, “Cannabinoformins: Designing Biguanide-Embedded, Orally Available, Peripherally Selective Cannabinoid-1 Receptor Antagonists for Metabolic Syndrome Disorders” (J Med Chem, 2023).

Legend:
[1] = biological target: T1, AMP-activated protein kinase (AMPK) alpha-1/beta-1/gamma-1 (Homo sapiens) (UniProt P54619+Q9Y478+Q13131); test: Activation of recombinant AMPK alpha1/beta1/gamma1 (unknown origin) at 10 uM relative to control; assay type: protein-complex assay; details: filed as activator
Cannabinoid receptor 1 [2] = biological target: T2, Cannabinoid receptor 1 (Mus musculus, UniProt P47746); test: Antagonist activity at CB1 receptor in mouse brain membrane assessed as inhibition of […]-induced GTPgammaS binding by [35S]GTPgammaS binding analysis; assay type: functional, cell membranes
[3] = biological target: T1, AMP-activated protein kinase (AMPK) alpha-1/beta-1/gamma-1 (Homo sapiens); test: Activation of recombinant AMPK alpha1/beta1/gamma1 (unknown origin) at 1 uM relative to control; assay type: protein-complex assay; details: filed as activator
Cannabinoid receptor 1 [4] = biological target: T2, Cannabinoid receptor 1; test: Displacement of [3H][…] from CB1 receptor in mouse brain plasma membrane by radioligand displacement analysis; assay type: cell membranes
[5] = Drug uptake in C57BL/6J mouse plasma at 10 mg/kg, po measured after 1 hr by LC-MS/MS analysis; assay type: ADME, organism-based
[6] = Drug uptake in C57BL/6J mouse brain at 10 mg/kg, po measured after 1 hr by LC-MS/MS analysis; assay type: ADME, organism-based; details: read-out: Drug uptake

T2 sequence (P47746 whole entry): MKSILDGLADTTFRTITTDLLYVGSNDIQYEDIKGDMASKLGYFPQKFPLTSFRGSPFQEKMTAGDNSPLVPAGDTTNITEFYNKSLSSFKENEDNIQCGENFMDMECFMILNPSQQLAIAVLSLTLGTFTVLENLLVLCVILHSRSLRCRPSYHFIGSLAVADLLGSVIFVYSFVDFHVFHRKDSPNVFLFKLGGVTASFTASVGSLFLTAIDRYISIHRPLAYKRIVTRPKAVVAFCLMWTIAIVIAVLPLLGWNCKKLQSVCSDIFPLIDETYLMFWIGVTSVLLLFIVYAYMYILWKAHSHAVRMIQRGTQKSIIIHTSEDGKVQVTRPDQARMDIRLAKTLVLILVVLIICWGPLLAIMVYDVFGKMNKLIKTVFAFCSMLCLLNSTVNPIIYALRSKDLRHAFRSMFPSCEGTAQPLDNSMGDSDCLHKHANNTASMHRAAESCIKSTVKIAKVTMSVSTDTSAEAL
T1 sequence (P54619 whole entry): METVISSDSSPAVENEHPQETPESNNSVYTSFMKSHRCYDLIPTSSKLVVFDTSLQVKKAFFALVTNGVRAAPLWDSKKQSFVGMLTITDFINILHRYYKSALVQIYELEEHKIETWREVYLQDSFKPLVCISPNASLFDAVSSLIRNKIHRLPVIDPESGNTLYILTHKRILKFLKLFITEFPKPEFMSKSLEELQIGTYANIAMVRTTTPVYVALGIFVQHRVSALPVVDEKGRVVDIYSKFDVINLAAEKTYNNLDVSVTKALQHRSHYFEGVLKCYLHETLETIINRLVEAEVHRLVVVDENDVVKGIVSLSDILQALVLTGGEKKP
T1 sequence (Q13131 whole entry partner): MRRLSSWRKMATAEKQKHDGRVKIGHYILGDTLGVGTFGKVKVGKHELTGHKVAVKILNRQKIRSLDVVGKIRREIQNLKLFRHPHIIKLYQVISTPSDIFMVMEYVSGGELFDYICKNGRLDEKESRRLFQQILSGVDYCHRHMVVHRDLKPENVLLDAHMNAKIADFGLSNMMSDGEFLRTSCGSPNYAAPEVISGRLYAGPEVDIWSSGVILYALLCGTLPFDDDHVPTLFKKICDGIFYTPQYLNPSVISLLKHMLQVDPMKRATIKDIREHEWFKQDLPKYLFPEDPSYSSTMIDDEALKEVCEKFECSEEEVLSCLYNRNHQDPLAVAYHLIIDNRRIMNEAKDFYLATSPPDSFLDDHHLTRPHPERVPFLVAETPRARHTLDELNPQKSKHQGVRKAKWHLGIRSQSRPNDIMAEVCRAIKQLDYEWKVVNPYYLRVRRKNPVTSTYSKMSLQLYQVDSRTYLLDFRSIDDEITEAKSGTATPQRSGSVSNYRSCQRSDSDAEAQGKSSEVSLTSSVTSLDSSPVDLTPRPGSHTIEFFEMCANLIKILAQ
T1 sequence (Q9Y478 2-270 partner limits assumed): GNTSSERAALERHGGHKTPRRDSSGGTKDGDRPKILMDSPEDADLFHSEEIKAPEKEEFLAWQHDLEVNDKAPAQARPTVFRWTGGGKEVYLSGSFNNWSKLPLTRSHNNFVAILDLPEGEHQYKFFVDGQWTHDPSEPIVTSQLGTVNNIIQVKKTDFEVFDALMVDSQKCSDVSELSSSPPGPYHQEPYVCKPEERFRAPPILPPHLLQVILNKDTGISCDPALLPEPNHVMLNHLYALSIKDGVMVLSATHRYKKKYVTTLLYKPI

Row | Compound | Activity [1] [%] | IC50 (Cannabinoid receptor 1 [2]) [nM] | Activity [3] [%] | Ki (Cannabinoid receptor 1 [4]) [nM] | concentration at 1 h [5] [ng/mL] | concentration at 1 h [6] [ng/g]
1 | CN(C)/C(N)=N/C(=N/S(=O)(=O)c1ccc(Cl)cc1)N1CC(c2ccccc2)C(c2ccc(Cl)cc2)=N1 (centres undefined) | 124 | 47 | 124 |  |  | 
2 | CC(=O)N/C(N)=N/C(=N/S(=O)(=O)N1CCC(C(F)(F)F)CC1)N1C[C@@H](c2ccccc2)C(c2ccc(Cl)cc2)=N1 | 114 |  |  | 37 |  | 
3 | CC(=O)N/C(N)=N/C(=N/S(=O)(=O)N1CCC(F)(F)CC1)N1CC(c2ccccc2)C(c2ccc(Cl)cc2)=N1 (centres undefined) |  | 2 | 142 | 0.7 | 26 | 4
4 | CC(=O)N/C(N)=N/C(=N/S(=O)(=O)c1ccc(C)cc1)N1CC(c2ccccc2)C(c2ccc(Cl)cc2)=N1 (centres undefined) |  | 19 | 96 | 8.6 |  | 
5 | CCCCN(CC)/C(N)=N/C(=N/S(=O)(=O)c1ccc(Cl)cc1)N1CC(c2ccccc2)C(c2ccc(Cl)cc2)=N1 (centres undefined) | 172 |  |  |  |  | 
6 | CC(=O)N/C(N)=N/C(=N/S(=O)(=O)c1ccc(Br)cc1)N1CC(c2ccccc2)C(c2ccc(Cl)cc2)=N1 (centres undefined) |  | 4.9 | 94 | 0.6 |  | 
7 | COCCN(CCOC)/C(N)=N/C(=N/S(=O)(=O)c1ccc(Cl)cc1)N1CC(c2ccccc2)C(c2ccc(Cl)cc2)=N1 (centres undefined) | 155 |  |  |  |  | 
8 | CC(=O)N/C(N)=N/C(=N/S(=O)(=O)c1ccc(C(C)C)cc1)N1CC(c2ccccc2)C(c2ccc(Cl)cc2)=N1 (centres undefined) |  | 1.7 | 119 | 3.7 |  | 
9 | NC(N)=N/C(=N/S(=O)(=O)c1ccc(Cl)cc1)N1CC(c2ccccc2)C(c2ccc(Cl)cc2)=N1 (centres undefined) |  |  |  | 415 |  | 
10 | CN=C(NS(=O)(=O)c1ccc(Cl)cc1)N1C[C@H](c2ccccc2)C(c2ccc(Cl)cc2)=N1 [IBIPINABANT] |  |  |  | 8.1 |  | 
11 | COc1ccc(S(=O)(=O)/N=C(/N=C(\N)NC(C)=O)N2CC(c3ccccc3)C(c3ccc(Cl)cc3)=N2)cc1 (centres undefined) |  | 16 | 98 | 13 |  | 
12 | N/C(=N\C(=N\S(=O)(=O)c1ccc(Cl)cc1)N1CC(c2ccccc2)C(c2ccc(Cl)cc2)=N1)NCC12C[C@H]3C[C@@H](C1)C[C@@H](C2)C3 (some centres undefined) |  |  |  | > 1000 |  | 
13 | CCC(=O)N/C(N)=N/C(=N/S(=O)(=O)c1ccc(C(F)(F)F)cc1)N1CC(c2ccccc2)C(c2ccc(Cl)cc2)=N1 (centres undefined) |  | 5.5 | 96 | 3.3 |  | 
14 | CC(=O)N/C(N)=N/C(=N/S(=O)(=O)c1ccc2ccccc2c1)N1C[C@@H](c2ccccc2)C(c2ccc(Cl)cc2)=N1 |  |  |  | 78 |  | 
15 | C=CCN(CC=C)/C(N)=N/C(=N/S(=O)(=O)c1ccc(Cl)cc1)N1CC(c2ccccc2)C(c2ccc(Cl)cc2)=N1 (centres undefined) | 157 |  |  |  |  | 
16 | CN/C(N)=N/C(=N/S(=O)(=O)c1ccc(Cl)cc1)N1CC(c2ccccc2)C(c2ccc(Cl)cc2)=N1 (centres undefined) | 139 |  |  |  |  | 
17 | Cc1ccc(S(=O)(=O)/N=C(/N=C(\N)NC(=O)c2ccccc2)N2CC(c3ccccc3)C(c3ccc(Cl)cc3)=N2)cc1 (centres undefined) |  | 59 | 102 | 25 |  | 
18 | CC(=O)N/C(N)=N/C(=N/S(=O)(=O)c1ccc(Cl)cc1)N1C[C@@H](c2ccccc2)C(c2ccc(Cl)cc2)=N1 | 130 |  |  | 103 |  | 
19 | CCN(CC)/C(N)=N/C(=N/S(=O)(=O)c1ccc(Cl)cc1)N1CC(c2ccccc2)C(c2ccc(Cl)cc2)=N1 (centres undefined) | 113 | 53 | 113 |  |  | 
20 | CC(=O)N/C(N)=N/C(=N/S(=O)(=O)c1ccc(I)cc1)N1C[C@@H](c2ccccc2)C(c2ccc(Cl)cc2)=N1 | 122 |  |  | 55 |  | 
21 | N/C(=N\C(=N\S(=O)(=O)c1ccc(C(F)(F)F)cc1)N1CC(c2ccccc2)C(c2ccc(Cl)cc2)=N1)NC(=O)c1ccccc1 (centres undefined) |  | 6.1 | 101 | 3 |  | 
22 | N/C(=N\C(=N\S(=O)(=O)c1ccc(I)cc1)N1CC(c2ccccc2)C(c2ccc(Cl)cc2)=N1)NC(=O)c1ccccc1 (centres undefined) |  | 14 | 96 | 5.5 |  | 
23 | CC(=O)N/C(N)=N/C(=N/S(=O)(=O)c1ccc(I)cc1)N1CC(c2ccccc2)C(c2ccc(Cl)cc2)=N1 (centres undefined) |  | 2.8 | 121 | 3.2 |  | 
24 | CN/C(=N\S(=O)(=O)c1ccc(Cl)cc1)N1C[C@H](c2ccccc2)C(c2ccc(Cl)cc2)=N1 | 100 |  |  |  |  | 
25 | N/C(=N\C(=N\S(=O)(=O)c1ccc(OC(F)(F)F)cc1)N1CC(c2ccccc2)C(c2ccc(Cl)cc2)=N1)NC(=O)c1ccccc1 (centres undefined) |  | 86 | 104 | 13 |  | 
26 | CC(=O)N/C(N)=N/C(=N/S(=O)(=O)c1ccc(F)cc1)N1CC(c2ccccc2)C(c2ccc(Cl)cc2)=N1 (centres undefined) |  | 10 | 95 | 2.3 |  | 
27 | CC(=O)N/C(N)=N/C(=N/S(=O)(=O)c1ccc(OC(F)(F)F)cc1)N1CC(c2ccccc2)C(c2ccc(Cl)cc2)=N1 (centres undefined) |  | 3.2 | 125 |  |  | 
28 | CC(=O)N/C(N)=N/C(=N/S(=O)(=O)c1ccc(OC(F)(F)F)cc1)N1C[C@@H](c2ccccc2)C(c2ccc(Cl)cc2)=N1 | 114 |  |  | 5.3 |  | 
29 | N/C(=N\C(=N\S(=O)(=O)c1ccc(Cl)cc1)N1CC(c2ccccc2)C(c2ccc(Cl)cc2)=N1)N1CCCC1 (centres undefined) | 135 |  |  |  |  | 

Further lines, results first:

Row | Activity [1] [%] | IC50 (Cannabinoid receptor 1 [2]) [nM] | Activity [3] [%] | Ki (Cannabinoid receptor 1 [4]) [nM] | concentration at 1 h [5] [ng/mL] | concentration at 1 h [6] [ng/g] | Compound
30 | 127 |  |  |  |  |  | N/C(=N\C(=N\S(=O)(=O)c1ccc(Cl)cc1)N1CC(c2ccccc2)C(c2ccc(Cl)cc2)=N1)N1CCOCC1 (centres undefined)
31 | 166 |  |  |  |  |  | N/C(=N\C(=N\S(=O)(=O)c1ccc(Cl)cc1)N1CC(c2ccccc2)C(c2ccc(Cl)cc2)=N1)N1CCCCC1 (centres undefined)
32 |  | 68 | 98 | 8.5 |  |  | COc1ccc(S(=O)(=O)/N=C(/N=C(\N)NC(=O)c2ccccc2)N2CC(c3ccccc3)C(c3ccc(Cl)cc3)=N2)cc1 (centres undefined)
33 |  | 6 | 91 | 2.8 |  |  | CCC(=O)N/C(N)=N/C(=N/S(=O)(=O)c1ccc(Cl)cc1)N1CC(c2ccccc2)C(c2ccc(Cl)cc2)=N1 (centres undefined)
34 | 175 | 396 | 175 |  |  |  | CCCN(CCC)/C(N)=N/C(=N/S(=O)(=O)c1ccc(Cl)cc1)N1CC(c2ccccc2)C(c2ccc(Cl)cc2)=N1 (centres undefined)
35 |  | 2 | 162 | 2.3 |  |  | CC(=O)N/C(N)=N/C(=N/S(=O)(=O)N1CCOCC1)N1CC(c2ccccc2)C(c2ccc(Cl)cc2)=N1 (centres undefined)
36 | 100 | 84 | 100 |  |  |  | CC(C)(N/C(N)=N/C(=N/S(=O)(=O)c1ccc(Cl)cc1)N1CC(c2ccccc2)C(c2ccc(Cl)cc2)=N1)c1ccccc1 (centres undefined)
37 |  |  |  | > 1000 |  |  | N/C(=N\C(=N\S(=O)(=O)c1ccc(Cl)cc1)N1CC(c2ccccc2)C(c2ccc(Cl)cc2)=N1)NC12C[C@H]3C[C@@H](C1)C[C@@H](C2)C3 (some centres undefined)
38 |  | 5.8 | 91 | 0.4 |  |  | CC(=O)N/C(N)=N/C(=N/S(=O)(=O)c1ccc(C#N)cc1)N1CC(c2ccccc2)C(c2ccc(Cl)cc2)=N1 (centres undefined)
39 |  | 21 | 93 | 6.8 |  |  | CC(=O)N/C(N)=N/C(=N/S(=O)(=O)c1ccccc1)N1CC(c2ccccc2)C(c2ccc(Cl)cc2)=N1 (centres undefined)
40 | 156 |  |  |  |  |  | COCCN/C(N)=N/C(=N/S(=O)(=O)c1ccc(Cl)cc1)N1CC(c2ccccc2)C(c2ccc(Cl)cc2)=N1 (centres undefined)
41 |  | 2.1 | 152 | 1.3 |  |  | CCN(CC)S(=O)(=O)/N=C(/N=C(\N)NC(C)=O)N1CC(c2ccccc2)C(c2ccc(Cl)cc2)=N1 (centres undefined)
42 | 182 |  |  |  |  |  | CN1CCN(/C(N)=N/C(=N/S(=O)(=O)c2ccc(Cl)cc2)N2CC(c3ccccc3)C(c3ccc(Cl)cc3)=N2)CC1 (centres undefined)
43 | 145 |  |  |  |  |  | CC(C)N/C(N)=N/C(=N/S(=O)(=O)c1ccc(Cl)cc1)N1CC(c2ccccc2)C(c2ccc(Cl)cc2)=N1 (centres undefined)
44 |  | 7 | 152 | 1.6 | 44 | 1.9 | CC(=O)N/C(N)=N/C(=N/S(=O)(=O)N1CCCCC1)N1CC(c2ccccc2)C(c2ccc(Cl)cc2)=N1 (centres undefined)
45 |  | 1.4 | 118 |  |  |  | CC(=O)N/C(N)=N/C(=N/S(=O)(=O)c1ccc(C(C)(C)C)cc1)N1CC(c2ccccc2)C(c2ccc(Cl)cc2)=N1 (centres undefined)
46 | 136 |  |  |  |  |  | N/C(=N\C(=N\S(=O)(=O)c1ccc(Cl)cc1)N1CC(c2ccccc2)C(c2ccc(Cl)cc2)=N1)NCCc1ccccc1 (centres undefined)
47 |  | 6.1 | 117 | 16 |  |  | CC(=O)N/C(N)=N/C(=N/S(=O)(=O)c1ccc2ccccc2c1)N1CC(c2ccccc2)C(c2ccc(Cl)cc2)=N1 (centres undefined)
48 |  | 25 | 100 | 0.8 |  |  | N/C(=N\C(=N\S(=O)(=O)c1ccc(Cl)cc1)N1CC(c2ccccc2)C(c2ccc(Cl)cc2)=N1)NC(=O)c1ccccc1 (centres undefined)
49 |  | 3.1 | 142 | 2.9 |  |  | CC(=O)N/C(N)=N/C(=N/S(=O)(=O)c1ccc(Cl)cc1)N1CC(c2ccccc2)C(c2ccc(Cl)cc2)=N1 (centres undefined)
50 | 149 |  |  |  |  |  | N/C(=N\C(=N\S(=O)(=O)c1ccc(Cl)cc1)N1CC(c2ccccc2)C(c2ccc(Cl)cc2)=N1)NCc1ccccc1 (centres undefined)
51 | 153 |  |  |  |  |  | CN(Cc1ccccc1)/C(N)=N/C(=N/S(=O)(=O)c1ccc(Cl)cc1)N1CC(c2ccccc2)C(c2ccc(Cl)cc2)=N1 (centres undefined)
52 | 126 | 230 | 126 |  |  |  | CC(C)(C)N/C(N)=N/C(=N/S(=O)(=O)c1ccc(Cl)cc1)N1CC(c2ccccc2)C(c2ccc(Cl)cc2)=N1 (centres undefined)
53 |  | 66 | 90 | 8.1 |  |  | N/C(=N\C(=N\S(=O)(=O)c1ccc2ccccc2c1)N1CC(c2ccccc2)C(c2ccc(Cl)cc2)=N1)NC(=O)c1ccccc1 (centres undefined)
54 |  | 2.5 | 116 | 0.8 | 28 | 0.21 | CC(=O)N/C(N)=N/C(=N/S(=O)(=O)N1CCC(C(F)(F)F)CC1)N1CC(c2ccccc2)C(c2ccc(Cl)cc2)=N1 (centres undefined)
